Test results from PMC9944328 (Nature Communications, 2023).

Assays:
SSTR3 = target: T1, SSTR3 (Homo sapiens, UniProt P32745); test: SSTRs Gi-mediated cAMP inhibition, GloSensor, HEK293 (SSTR3 wild-type); format: cell-based; set-up: Bottom / Top / Span / Top (best-fit): unit not given here; settings: SSTR3-WT; for LogEC50 (best-fit) / Top (best-fit): cAMP inhibition
T1 construct: The human full-length SSTRs and mutants were cloned into the pcDNA3.1+ vector; expressed in transfected cells; host or cells: HEK293 (ATCC, CRL-1573)
T1 sequence (P32745 whole entry): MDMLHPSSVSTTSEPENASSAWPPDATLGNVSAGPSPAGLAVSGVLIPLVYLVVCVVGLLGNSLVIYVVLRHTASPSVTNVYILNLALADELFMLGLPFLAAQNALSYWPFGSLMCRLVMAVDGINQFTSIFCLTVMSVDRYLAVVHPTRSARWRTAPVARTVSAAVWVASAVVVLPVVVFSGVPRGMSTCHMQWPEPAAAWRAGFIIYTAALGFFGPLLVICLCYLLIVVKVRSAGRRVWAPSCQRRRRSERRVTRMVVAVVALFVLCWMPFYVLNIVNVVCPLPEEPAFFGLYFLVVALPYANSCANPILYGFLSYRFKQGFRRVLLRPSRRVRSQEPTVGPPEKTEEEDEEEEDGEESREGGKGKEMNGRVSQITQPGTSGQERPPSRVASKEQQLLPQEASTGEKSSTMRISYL
Description: (§1) The levels of the intracellular 3′, 5′-cyclic AMP (cAMP) were measured by the GloSensor cAMP assay (Promega) as described in the previous studies[28],[41] which has been widely used. The human full-length SSTRs and mutants were cloned into the pcDNA3.1+ vector with a HA signal sequence followed by a Flag tag at the N-terminus. […] Cells were then co-transfected with SSTR wild-type or mutants and GloSensor plasmids. After 24 h of transfection, the cells were dissociated with TrypLE™ Express Enzyme (1X) (Thermo Fisher Scientific) and collected by centrifugation at 500 × g for 5 min. Then the collected cells were suspended in Hank’s balanced salt solution [HBSS (Thermo Fisher Scientific)] supplemented with […] potassium salt solution (YEASEN), and then the suspension cells were seeded into 96-well plates with 90 μl/well. After incubating at room temperature for 40 min, 5 μM forskolin and ligands diluted in HBSS were added to each well and the plates were incubated at room temperature for 15 min. […] signals were measured using the Synergy H1 microplate reader (BioTek) and the data presented are means of at least three independent experiments.

SSTR3 mutants [1] = target: SSTR3 mutants (Homo sapiens, UniProt P32745); test: SSTRs Gi-mediated cAMP inhibition, GloSensor, HEK293 (SSTR3 mutants); format: cell-based; set-up: Bottom / Top / Span / Top (best-fit): unit not given here; settings: for LogEC50 (best-fit) / Top (best-fit): cAMP inhibition, SSTR3 N101V
Sequence of SSTR3 mutants (Homo sapiens, UniProt P32745) (P32745 whole entry N104V): as the sequence (P32745 whole entry) above, with N104V counted along it
Description: as §1

SSTR3 mutants [2] = target: T2, SSTR3 mutants (Homo sapiens, UniProt P32745, H192T); test: as above; format: cell-based; set-up: Bottom / Top / Span / Top (best-fit): unit not given here; settings: for LogEC50 (best-fit) / Top (best-fit): cAMP inhibition, SSTR3 H192T
T2 construct: The human full-length SSTRs and mutants were cloned into the pcDNA3.1+ vector; expressed in transfected cells; host or cells: HEK293 (ATCC, CRL-1573)
T2 sequence (P32745 whole entry H192T): as the sequence (P32745 whole entry) above, with H192T counted along it
Description: as §1

SSTR2 mutants = test: SSTR2 internalization by ELISA, HEK293, 30 min 37 °C (mutants); format: cell-based, human; settings: I284ECL3A, K291A, N276A, F294A, Bystander BRET or confocal
Description: HEK293 cells were seeded into 96-well microplates at a density of 4 × 10^4 cells/well and cultured for 24 h at 37 °C with 5% CO2 and were transfected using the same procedure as the cAMP accumulation assay. The plates were washed with washing buffer (PBS) the day after transfection, and were fixed with 4% formalin at room temperature for 30 min. Cells were washed with washing buffer and blocked with PBS supplemented with 5% BSA for 1 h at room temperature. After that, cells were incubated with anti-Flag antibody (1:1000 diluted with PBS containing 5% BSA, Proteintech: 66008-4-Ig) for 1 h at room temperature. After 1 h incubation, cells were washed with washing buffer and incubating with HRP-conjugated secondary antibody for 2 h at room temperature. After incubating and washing, 50 μl of chromogenic solution was added to each well, and reacted at room temperature for 10 min, and then 0.5 M HCl were added to stop the reaction.
All data presented are means at least three independent experiments.

SSTR2 [3] = test: β-arrestin recruitment with co-transfection of GRK2; format: cell-based, human; settings: N276(6.55)A and F294(7.35)A with GRK2 co-transfection
Description: In addition, we measured the function of the residues located in the core region and the common ligand binding pocket.
Human full-length β-arrestin 1 was cloned into pcDNA3.1+ vector with the large fragment (LgBiT) of the NanoBiT system and a 15-amino acid flexible linker ([sequence]) at the N-terminus. Human full-length SSTR wild-type and mutant vectors were C-terminally fused with a 15-amino acid flexible linker and the small fragment (SmBiT). HEK293 cells were seeded into six-well microplates at a density of 1.0 × 10^6 cells/well and cultured for 24 h at 37 °C with 5% CO2. After that, cells were co-transfected with pcDNA3.1+ vectors encoding SSTR wild-type or mutants and human β-arrestin 1. After transfecting for 24 h, the transfected cells were suspended and seeded into white 96-well plates, and then cultured at 37 °C overnight. After that the medium in each well was exchanged for 90 μl of 0.01% bovine serum albumin containing 20 μl of 50 μM coelenterazine h (Carbosynth) diluted in the HBSS assay buffer and incubated for 40 min at room temperature. Then, ligands diluted in the assay buffer was added to each well and the luminescence intensity was measured using the Synergy H1 microplate reader and detected at room temperature in a time period. All data presented are means of at least three independent experiments.

SSTR2 [4] = target: SSTR2 (Homo sapiens, UniProt P30874); test: Bystander BRET endosomal trafficking (β-arrestin 1-Nluc, FYVE-mVenus), HEK293 (SSTR2 wild-type); format: cell-based; set-up: The human full-length SSTRs and mutants were cloned into the pcDNA3.1+ vector; expressed in transfected cells; host or cells: HEK293;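 further: HEK293 cells coexpressing Nluc-tagged β-arrestin 1 and mVenus-fused FYVE endosomal marker, bystander BRET ratio read after ligand addition, coelenterazine h substrate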;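 on Bottom: percent of maximal wild-type response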;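 on Span: percent of maximal wild-type response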;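 on Top: percent of maximal wild-type response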
Sequence of SSTR2 (Homo sapiens, UniProt P30874) (P30874 whole entry, the tested form may be a part): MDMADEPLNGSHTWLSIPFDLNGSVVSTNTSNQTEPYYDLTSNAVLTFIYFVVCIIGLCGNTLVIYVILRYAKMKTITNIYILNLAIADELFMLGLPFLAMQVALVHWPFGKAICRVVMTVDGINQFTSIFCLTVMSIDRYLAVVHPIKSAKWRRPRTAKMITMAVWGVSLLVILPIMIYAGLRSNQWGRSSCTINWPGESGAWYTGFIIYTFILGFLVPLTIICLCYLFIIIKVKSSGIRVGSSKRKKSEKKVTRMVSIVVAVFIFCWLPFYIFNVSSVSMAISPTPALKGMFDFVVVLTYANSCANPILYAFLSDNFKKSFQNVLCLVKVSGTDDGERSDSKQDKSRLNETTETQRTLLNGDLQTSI
Description: Wild-type or mutant SSTR2, β-arrestin 1-Nluc and FYVE-mVenus were co-transfected in HEK293 cells at a ratio of 1:0.5:4 on six-well plates. The next day, the transfected cells were plated on white 96-well and incubated overnight, and then cells were incubated with 90 µL HBSS containing 20 mM HEPES and coelenterazine h (5 µM) at room temperature for 40 min. After incubation, ligand was added and the signal was measured using the Synergy H1 microplate reader (BioTek) to determine a BRET ratio.

[5] = Best-fit values, WT-1 (N276A set)
[6] = Best-fit values, WT-1 (P220A, I130A, F265A sets)
[7] = Best-fit values, WT-1 (R140A, Y312A sets)
[8] = Best-fit values, WT-1/-3 (W269A set), WT-2 (N276A set), WT-1 (I284A set)
[9] = Best-fit values, WT-2 (P220A, I130A, F265A sets)
[10] = Best-fit values, WT-2 (R140A, Y312A sets)
[11] = Best-fit values, WT-2 (W269A, I284A sets)
[12] = Best-fit values, WT-3 (N276A set)
[13] = best-fit, SSTR2 WT-1 (control in F294A block), run 1
[14] = best-fit, SSTR2 WT-1 (control in K291A block), run 1
[15] = best-fit, SSTR2 WT-2 (control in F294A block), run 2
[16] = best-fit, SSTR2 WT-2 (control in K291A block), run 2

C[C@@H](O)[C@@H]1NC(=O)[C@H](CCCCN)NC(=O)[C@@H](Cc2c[nH]c3ccccc23)NC(=O)[C@H](Cc2ccccc2)NC(=O)[C@@H](NC(=O)[C@H](N)Cc2ccccc2)CSSC[C@@H](C(=O)N[C@H](CO)[C@@H](C)O)NC1=O [octreotide]
Emax (SSTR3; HEK293, Suppl. Tables 4/5, n=5): 99.8 ± 8.21% | LogEC50 (best-fit) (SSTR3; run 1): -7.262 | Top (best-fit) (SSTR3; run 1): 103 | LogEC50 (best-fit) (SSTR3; run 2): -7.521 | Top (best-fit) (SSTR3; run 2): 99.85 | LogEC50 (best-fit) (SSTR3; run 3): -7.466 | Top (best-fit) (SSTR3; run 3): 98.24 | LogEC50 (best-fit) (SSTR3; run 4): -8.231 | Top (best-fit) (SSTR3; run 4): 100.3 | Emax (SSTR3 mutants [1]; HEK293): 120 ± 3.57% | LogEC50 (best-fit) (SSTR3 mutants [1]; run 1): -8.602 | Top (best-fit) (SSTR3 mutants [1]; run 1): 99.48 | LogEC50 (best-fit) (SSTR3 mutants [1]; run 2): -8.875 | Top (best-fit) (SSTR3 mutants [1]; run 2): 120.3 | LogEC50 (best-fit) (SSTR3 mutants [1]; run 3): -8.73 | Top (best-fit) (SSTR3 mutants [1]; run 3): 98.22 | LogEC50 (best-fit) (SSTR3 mutants [1]; run 4): -9.386 | Top (best-fit) (SSTR3 mutants [1]; run 4): 101.4 | EC50 of mutant versus wild-type (SSTR3 mutants [2]; H192(45.51)T mutant of SSTR3): retained a similar EC50 as wild-type receptor | Emax (SSTR3 mutants [2]; HEK293, Suppl. Tables 4/5, SSTR3 H192(45.51)T, n=3, read-out: Emax): 92.4 ± 10.2% | LogEC50 (best-fit) (SSTR3 mutants [2]; run 1): -7.081 | Top (best-fit) (SSTR3 mutants [2]; run 1): 99.15 | LogEC50 (best-fit) (SSTR3 mutants [2]; run 2): -7.677 | Top (best-fit) (SSTR3 mutants [2]; run 2): 107.4 | LogEC50 (best-fit) (SSTR3 mutants [2]; run 3): -7.174 | Top (best-fit) (SSTR3 mutants [2]; run 3): 100.5 | LogEC50 (best-fit) (SSTR3 mutants [2]; run 4): -7.758 | Top (best-fit) (SSTR3 mutants [2]; run 4): 101.2 | Internalization of mutants (SSTR2 mutants): diminished internalization | β-arrestin recruitment with GRK2 (SSTR2 [3]): nearly abolished | Bottom (SSTR2 [4]; [5]): -3.249 | Span (SSTR2 [4]; [5]): 103 | Top (SSTR2 [4]; [5]): 99.78 | Bottom (SSTR2 [4]; [6]): 16.02 | Span (SSTR2 [4]; [6]): 79.41 | Top (SSTR2 [4]; [6]): 95.44 | Bottom (SSTR2 [4]; [7]): -2.667 | Span (SSTR2 [4]; [7]): 105.4 | Top (SSTR2 [4]; [7]): 102.8 | Span (SSTR2 [4]; Best-fit values, WT-1/-3 (W269A set), WT-2 (N276A set)): 83.76 | Bottom (SSTR2 [4]; [8]): 4.545 | Top (SSTR2 [4]; [8]): 88.3 | Bottom (SSTR2 [4]; [9]): 0.5214 | Span (SSTR2 [4]; [9]): 104.2 | Top (SSTR2 [4]; [9]): 104.7 | Bottom (SSTR2 [4]; [10]): -1.531 | Span (SSTR2 [4]; [10]): 100.4 | Top (SSTR2 [4]; [10]): 98.89 | Span (SSTR2 [4]; Best-fit values, WT-2 (W269A set)): 83.11 | Bottom (SSTR2 [4]; [11]): 7.543 | Top (SSTR2 [4]; [11]): 90.66 | Bottom (SSTR2 [4]; [12]): -1.634 | Span (SSTR2 [4]; [12]): 102.4 | Top (SSTR2 [4]; [12]): 100.7 | Emax (SSTR2 [4]; HEK293, Bystander BRET, SSTR2-WT, n=6, read-out: Emax): 100% | Bottom (SSTR2 [4]; [13]): 14.58 | Span (SSTR2 [4]; [13]): 85.75 | Top (SSTR2 [4]; [13]): 100.3 | Span (SSTR2 [4]; best-fit, SSTR2 WT-1 (control in I284A and K291A blocks), run 1): 83.76 | Bottom (SSTR2 [4]; [14]): 4.545 | Top (SSTR2 [4]; [14]): 88.3 | Bottom (SSTR2 [4]; [15]): 19.75 | Span (SSTR2 [4]; [15]): 76.3 | Top (SSTR2 [4]; [15]): 96.05 | Span (SSTR2 [4]; best-fit, SSTR2 WT-2 (control in I284A and K291A blocks), run 2): 83.11 | Bottom (SSTR2 [4]; [16]): 7.543 | Top (SSTR2 [4]; [16]): 90.66 | Bottom (SSTR2 [4]; best-fit, SSTR2 WT-3 (control in F294A block), run 3): -1.634
